Read-outs that look alike come from different tables or passages of the source.
Experiments:
[1] = system: L. johnsonii (CNCM I-1225) fresh cells; experiment: Hydrolysis of caftaric acid with L. johnsonii (La1) fresh cells; format: in vitro ADME, Lactobacillus johnsonii; details: after 4 h reaction time, 37° C.
Description: Cells of L. johnsonii (CNCM I-1225) were grown (7.0 E08 cfu/ml) and centrifuged (5000 g, 10 min), the pellets were resuspended in phosphate buffer (50 mM, pH 7.0) at a concentration of 0.61 g/ml. To 100 μl of this cells solution, 100 μl of a solution of caftaric acid (12 mM) was added and the mixture was incubated at 37° C. Samples were withdrawn at different reaction times, centrifuged (3000 g, 5 min) and filtered through 0.45 μm pore size syringe filters (Millipore SLHA 025 BS) and analysed by HPLC.
A reaction control was run in parallel under the same reaction conditions but without bacteria.
(§1) HPLC-DAD analysis of caftaric acid and hydrolysis products was performed on a Agilent 1100 system equipped with a Atlantis C18 reverse-phase column (4.6×100 mm, particle size 3 μm) and a diode array detector. The column was equilibrated with water containing 0.1% formic acid. After injection, a linear gradient to a final solvent composition of 55% water and 45% acetonitrile (containing 0.1% formic acid) was run within 12 min at a flow rate of 1 ml/min. Caftaric acid and caffeic acid were monitored by UV at 320 nm and were quantified using standard calibration curves.

[2] = system: Nrf2-ARE pathway (AREc32 cells); experiment: Antioxidant Responsive Element (ARE) luciferase assay; format: cell-based, human; details: for F/C (firefly luciferase activity): AREc reporter cell line, 24 h
chlorogenate esterase = details: Aspergillus japonicus, 1.85 mg/mL, pH 7
Description: A solution of chlorogenate esterase (0.8 mg, 24 U/g, from Kikkoman Japan) in 100 μl phosphate buffer (50 mM, pH 7.0) was added to a solution of caftaric acid (0.37 mg) in 100 μl phosphate buffer (50 mM, pH 7.0). The mixture was then incubated at 37° C. for 4 h. […] The supernatant was then analysed by HPLC. A reaction control was run in parallel under the same reaction conditions but without enzyme.
as §1

[3] = system: L. johnsonii (CNCM I-1225) crude cell extract
Description: (§2) Cells of L. johnsonii (CNCM I-1225) were grown (7.0 E08 cfu/ml) and centrifuged (5000 g, 10 min), the pellets were resuspended in phosphate buffer (50 mM, pH 7.0) at a concentration of 0.61 g/ml. The cells were then lysed using the glass-beads method. 600 μl of cells preparation were put into a Mini-Beadbeater for 1 min of intense shaking, cooled in ice, and put another 1 min in the Mini-Beadbeater. The crude cell extract (100 μl) was then added to 100 μl of a solution of caftaric acid (12 mM, phosphate buffer 50 mM, pH 7.0) and the mixture was incubated at 37° C. Samples were withdrawn at different reaction times, centrifuged (3000 g, 5 min), filtered through 0.45 μm pore size syringe filters (Millipore SLHA 025 BS) and analysed by HPLC.
as §1

[4] = system: spray-dried preparation of L. johnsonii; details: Lactobacillus johnsonii, 6 mM, pH 7
Description: 10 mg of a spray-dried preparation of L. johnsonii (3.3 E09 cfu/g) were dissolved in 100 μl of phosphate buffer (50 mM, pH 7.0). To this solution, 100 μl of a caftaric acid solution (12 mM, phosphate buffer 50 mM, pH 7.0) were added. The mixture was then incubated at 37° C. and samples were withdrawn at different reaction times. After centrifugation (3000 g, 5 min) and filtration (0.45 μm pore size syringe filters, Millipore SLHA 025 BS) the samples were analysed by HPLC.
as §1

[5] = system: L. johnsonii (CNCM I-1225) crude cell extract; experiment: Hydrolysis of caftaric acid with La1 extract (lysed cells); details: after 2 h, 37° C.
Description: as §2, §1

liver metastasis = details: subcutaneous and oral administrations; cited from earlier work

Row | Structure (SMILES) | Hydrolysis of caftaric acid into caffeic acid by chlorogenate esterase (amount by HPLC) (chlorogenate esterase; 0 min) | Hydrolysis of caftaric acid into caffeic acid by chlorogenate esterase (amount by HPLC) (chlorogenate esterase; 15 min) | Hydrolysis of caftaric acid into caffeic acid by chlorogenate esterase (amount by HPLC) (chlorogenate esterase; 30 min) | Hydrolysis of caftaric acid into caffeic acid by chlorogenate esterase (amount by HPLC) (chlorogenate esterase; 60 min) | Hydrolysis of caftaric acid into caffeic acid by chlorogenate esterase (amount by HPLC) (chlorogenate esterase; 120 min) | Hydrolysis of caftaric acid into caffeic acid by chlorogenate esterase (amount by HPLC) (chlorogenate esterase; 240 min) | hydrolysis of caftaric acid into caffeic acid by a spray-dried preparation of La1 (amount by HPLC) ([4]; 0 min) | hydrolysis of caftaric acid into caffeic acid by a spray-dried preparation of La1 (amount by HPLC) ([4]; 15 min) | hydrolysis of caftaric acid into caffeic acid by a spray-dried preparation of La1 (amount by HPLC) ([4]; 30 min) | hydrolysis of caftaric acid into caffeic acid by a spray-dried preparation of La1 (amount by HPLC) ([4]; 60 min) | hydrolysis of caftaric acid into caffeic acid by a spray-dried preparation of La1 (amount by HPLC) ([4]; 120 min) | hydrolysis of caftaric acid into caffeic acid by a spray-dried preparation of La1 (amount by HPLC) ([4]; 240 min) | further results
1 | O=C(/C=C/c1ccc(O)c(O)c1)O[C@@H](C(=O)O)[C@@H](O)C(=O)O [Caftaric acid] | 99% | 82% | 64% | 43% | 19% | 2% | 99 | 68 | 47 | 24 | 8 | 2 | transformation of caftaric acid into caffeic acid [1]: all caftaric acid was transformed into caffeic acid; Nrf2-luciferase reporter activity ([2]; AREc32 cells, saturation inactivation response at higher doses): positive dose-dependent response; F/C (firefly luciferase activity) ([2]; 125 μg/ml): 2796; F/C (firefly luciferase activity) ([2]; 250 μg/ml): 5821; F/C (firefly luciferase activity) ([2]; 500 μg/ml): 5182; F/C (firefly luciferase activity) ([2]; 750 μg/ml): 25792; F/C (firefly luciferase activity) ([2]; 1000 μg/ml): 4777; F/C (firefly luciferase activity) ([2]; 1200 μg/ml): 29043; reaction rate of hydrolysis as compared to whole cells [3]: increase of the reaction rate; transformation of caftaric acid into caffeic acid [5]: all caftaric acid acid was transformed into caffeic acid
2 | O=C(O)/C=C/c1ccc(O)c(O)c1 [Caffeic acid, Caffeic Acid] | 0% | 18% | 26% | 57% | 81% | 98% | 0 | 32 | 53 | 76 | 92 | 98 | liver metastasis (liver metastasis): significantly reduced liver metastasis

Reference: US20120020926A1, “COMPOSITION COMPRISING CAFTARIC ACID AND/OR DERIVATIVES THEREOF” (NESTEC S.A., priority 2009, published 2012)
